Data published in publication PMC12281424, “A Rac-specific competitive inhibitor of guanine nucleotide binding reduces metastasis in triple-negative breast cancer” (Cell Reports Medicine, 2025).
Where “and” joins values, the source holds several entries; their conditions need not be identical. Equal entries are not always repeated.

Legend:
EphA5(h) = EphA5(h) (Homo sapiens, UniProt P54756); assay: Kinase Profiler; type: biochemical
Procedure: (§1) Blood cell counts, kinase profiler, safety screen, bacterial cytotoxicity, Ames, micronucleus assays were performed by the company Eurofins (France). The kinase profiler was performed by the company Eurofins (Discovery, Panlab and Cerep).

Pim-1(h) = Pim-1(h) (Homo sapiens, UniProt P11309); assay: Kinase Profiler; type: biochemical
Procedure: as §1

Lyn(h) = Lyn(h) (Homo sapiens, UniProt P07948); assay: Kinase Profiler; type: biochemical
Procedure: (§2) The kinase profiler was performed by the company Eurofins (Discovery, Panlab and Cerep).

Syk(h) = Syk(h) (Homo sapiens, UniProt P43405); assay: Kinase Profiler; type: biochemical
Procedure: as §2

ZIPK(h) = ZIPK(h) (Homo sapiens, UniProt O43293); assay: Kinase Profiler; type: biochemical
Procedure: as §2

TAO3(h) = TAO3(h) (Homo sapiens, UniProt Q9H2K8); assay: Kinase Profiler; type: biochemical
Procedure: as §1

TA1537 = assay: Bacterial cytotoxicity; type: cell-based
Excerpt: Data S2. Bacterial cytotoxicity of A41.
Test Concentration %Effect Cytotoxicity (% of control) […]
Bacterial cytotoxicity (TA1537 - S9)

TGFBR2(h) = TGFBR2(h) (Homo sapiens, UniProt P37173); assay: Kinase Profiler; type: biochemical
Procedure: as §1

Wee1B(h) = Wee1B(h) (Homo sapiens, UniProt P0C1S8); assay: Kinase Profiler; type: biochemical
Procedure: as §2

[1] = molecular target: PI3K (p110a(H1047R)/p85a)(h) (Homo sapiens, UniProt P42336, H1047R); assay: Kinase Profiler; type: biochemical
Procedure: as §2

PI3K (p110d/p85a)(m) = PI3K (p110d/p85a)(m) (Mus musculus, UniProt O35904); assay: Kinase Profiler; type: biochemical
Procedure: as §1

MAPKAP-K2(h) = MAPKAP-K2(h) (Homo sapiens, UniProt P49137); assay: Kinase Profiler; type: biochemical
Procedure: as §2

ZAK(h) = ZAK(h) (Homo sapiens, UniProt Q9NYL2); assay: Kinase Profiler; type: biochemical
Procedure: as §2

ALK2(h) = ALK2(h) (Homo sapiens, UniProt Q04771); assay: Kinase Profiler; type: biochemical
Procedure: as §2

Histamine H1 = Histamine H1 (Homo sapiens, UniProt P35367); assay: Safety screen; type: binding
Procedure: as §1

AMPKα2(h) = AMPKα2(h) (Homo sapiens, UniProt P54646); assay: Kinase Profiler; type: biochemical
Procedure: as §1

PDGFRβ(h) = PDGFRβ(h) (Homo sapiens, UniProt P09619); assay: Kinase Profiler; type: biochemical
Procedure: as §2

PRKG2(h) = PRKG2(h) (Homo sapiens, UniProt Q13237); assay: Kinase Profiler; type: biochemical
Procedure: as §1

PI3KC2a(h) = PI3KC2a(h) (Homo sapiens, UniProt O00443); assay: Kinase Profiler; type: biochemical
Procedure: as §2

ALK4(h) = ALK4(h) (Homo sapiens, UniProt P36896); assay: Kinase Profiler; type: biochemical
Procedure: as §2

EGFR(L858R)(h) = EGFR(L858R)(h) (Homo sapiens, UniProt P00533, L858R); assay: Kinase Profiler; type: biochemical
Procedure: as §2

Met(D1246H)(h) = Met(D1246H)(h) (Homo sapiens, UniProt P08581, D1228H); assay: Kinase Profiler; type: biochemical
Procedure: as §2

PKCα(h) = PKCα(h) (Homo sapiens, UniProt P17252); assay: Kinase Profiler; type: biochemical
Procedure: as §2

SBK1(h) = SBK1(h) (Homo sapiens, UniProt Q52WX2); assay: Kinase Profiler; type: biochemical
Procedure: as §2

[2] = molecular target: Transporter, Serotonin (5- Hydroxytryptamine) (SERT) (Homo sapiens, UniProt P31645); assay: Safety screen; type: binding
Procedure: (§3) Blood cell counts, kinase profiler, safety screen, bacterial cytotoxicity, Ames, micronucleus assays were performed by the company Eurofins (France).

Adrenergic α1A = Adrenergic α1A (Rattus norvegicus, UniProt P43140); assay: Safety screen; type: binding
Procedure: as §3

HRI(h) = HRI(h) (Homo sapiens, UniProt Q9BQI3); assay: Kinase Profiler; type: biochemical
Procedure: as §2

[3] = tested on: GABAA, Ro-15-1788, Hippocampus; assay: Safety screen; type: binding, rat
Procedure: as §3

PAK4(h) = PAK4(h) (Homo sapiens, UniProt O96013); assay: Kinase Profiler; type: biochemical
Procedure: as §1

PhKγ1(h) = PhKγ1(h) (Homo sapiens, UniProt Q16816); assay: Kinase Profiler; type: biochemical
Procedure: as §1

TNIK(h) = TNIK(h) (Homo sapiens, UniProt Q9UKE5); assay: Kinase Profiler; type: biochemical
Procedure: as §2

Muscarinic M1 = Muscarinic M1 (Homo sapiens, UniProt P11229); assay: Safety screen; type: binding
Procedure: as §3

Bradykinin B2 = Bradykinin B2 (Homo sapiens, UniProt P30411); assay: Safety screen; type: binding
Procedure: as §1

MST4(h) = MST4(h) (Homo sapiens, UniProt Q9P289); assay: Kinase Profiler; type: biochemical
Procedure: as §2

Abl (Q252H) (h) = Abl (Q252H) (h) (Homo sapiens, UniProt P00519, Q252H); assay: Kinase Profiler; type: biochemical
Procedure: as §2

PKCζ(h) = PKCζ(h) (Homo sapiens, UniProt Q05513); assay: Kinase Profiler; type: biochemical
Procedure: as §2

Chain of Muscarinic M1 (P11229 whole entry): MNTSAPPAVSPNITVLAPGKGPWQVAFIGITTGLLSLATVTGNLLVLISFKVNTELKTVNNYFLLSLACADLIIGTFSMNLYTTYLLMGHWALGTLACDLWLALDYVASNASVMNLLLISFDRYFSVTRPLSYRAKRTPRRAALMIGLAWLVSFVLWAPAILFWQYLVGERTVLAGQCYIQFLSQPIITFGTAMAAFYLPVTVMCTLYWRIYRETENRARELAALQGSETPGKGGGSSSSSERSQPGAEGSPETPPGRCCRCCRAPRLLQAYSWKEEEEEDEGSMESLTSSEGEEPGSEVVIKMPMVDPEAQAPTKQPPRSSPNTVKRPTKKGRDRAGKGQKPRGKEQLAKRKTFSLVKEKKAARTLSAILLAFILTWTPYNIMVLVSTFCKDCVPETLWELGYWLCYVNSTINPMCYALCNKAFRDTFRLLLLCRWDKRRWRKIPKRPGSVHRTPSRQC
Chain of Adrenergic α1A (P43140 whole entry): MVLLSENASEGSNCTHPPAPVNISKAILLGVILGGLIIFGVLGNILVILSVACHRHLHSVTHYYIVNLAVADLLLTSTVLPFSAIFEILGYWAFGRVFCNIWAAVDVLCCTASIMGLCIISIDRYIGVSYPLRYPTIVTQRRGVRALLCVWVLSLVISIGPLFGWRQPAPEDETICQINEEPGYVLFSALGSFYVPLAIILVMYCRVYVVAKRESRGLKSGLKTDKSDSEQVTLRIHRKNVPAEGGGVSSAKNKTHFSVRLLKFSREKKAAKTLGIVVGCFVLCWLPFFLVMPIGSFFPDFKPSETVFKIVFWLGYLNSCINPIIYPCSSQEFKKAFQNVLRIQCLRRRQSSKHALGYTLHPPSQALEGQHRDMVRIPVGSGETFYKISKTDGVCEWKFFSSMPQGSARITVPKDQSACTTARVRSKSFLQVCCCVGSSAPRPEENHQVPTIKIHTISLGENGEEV
Chain of Pim-1(h) (P11309 whole entry): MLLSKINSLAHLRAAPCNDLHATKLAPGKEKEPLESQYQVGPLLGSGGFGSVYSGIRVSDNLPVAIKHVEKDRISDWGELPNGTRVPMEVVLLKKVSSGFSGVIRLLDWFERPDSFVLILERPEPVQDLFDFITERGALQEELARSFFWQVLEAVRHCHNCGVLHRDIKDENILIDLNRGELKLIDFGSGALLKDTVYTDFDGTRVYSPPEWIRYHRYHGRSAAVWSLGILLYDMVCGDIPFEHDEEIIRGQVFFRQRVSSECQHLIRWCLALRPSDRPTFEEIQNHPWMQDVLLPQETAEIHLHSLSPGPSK
Chain of Bradykinin B2 (P30411 whole entry): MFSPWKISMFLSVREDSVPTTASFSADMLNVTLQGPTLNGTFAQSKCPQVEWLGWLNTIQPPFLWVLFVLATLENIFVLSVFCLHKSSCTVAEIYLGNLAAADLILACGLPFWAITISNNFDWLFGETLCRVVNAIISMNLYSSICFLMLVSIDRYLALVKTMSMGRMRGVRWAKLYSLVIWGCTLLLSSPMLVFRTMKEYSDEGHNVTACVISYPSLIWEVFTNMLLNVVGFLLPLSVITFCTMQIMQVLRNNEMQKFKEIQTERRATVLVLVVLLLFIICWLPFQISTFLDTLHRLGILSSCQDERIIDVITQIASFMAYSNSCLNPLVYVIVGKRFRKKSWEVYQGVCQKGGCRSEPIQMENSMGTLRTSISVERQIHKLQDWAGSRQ
Chain of ZIPK(h) (O43293 whole entry): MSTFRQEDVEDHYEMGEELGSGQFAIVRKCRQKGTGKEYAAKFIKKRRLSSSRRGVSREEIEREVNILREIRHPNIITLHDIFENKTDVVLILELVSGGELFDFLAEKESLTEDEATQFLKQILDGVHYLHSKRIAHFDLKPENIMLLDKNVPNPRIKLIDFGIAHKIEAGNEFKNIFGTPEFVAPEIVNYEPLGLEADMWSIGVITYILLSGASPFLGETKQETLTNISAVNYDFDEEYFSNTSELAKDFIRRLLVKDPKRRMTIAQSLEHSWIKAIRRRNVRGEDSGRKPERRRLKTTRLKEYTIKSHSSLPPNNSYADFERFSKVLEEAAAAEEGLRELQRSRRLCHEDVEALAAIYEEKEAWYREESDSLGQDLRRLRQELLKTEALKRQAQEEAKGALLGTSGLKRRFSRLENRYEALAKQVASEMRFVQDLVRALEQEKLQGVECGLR
Chain of Wee1B(h) (P0C1S8 whole entry): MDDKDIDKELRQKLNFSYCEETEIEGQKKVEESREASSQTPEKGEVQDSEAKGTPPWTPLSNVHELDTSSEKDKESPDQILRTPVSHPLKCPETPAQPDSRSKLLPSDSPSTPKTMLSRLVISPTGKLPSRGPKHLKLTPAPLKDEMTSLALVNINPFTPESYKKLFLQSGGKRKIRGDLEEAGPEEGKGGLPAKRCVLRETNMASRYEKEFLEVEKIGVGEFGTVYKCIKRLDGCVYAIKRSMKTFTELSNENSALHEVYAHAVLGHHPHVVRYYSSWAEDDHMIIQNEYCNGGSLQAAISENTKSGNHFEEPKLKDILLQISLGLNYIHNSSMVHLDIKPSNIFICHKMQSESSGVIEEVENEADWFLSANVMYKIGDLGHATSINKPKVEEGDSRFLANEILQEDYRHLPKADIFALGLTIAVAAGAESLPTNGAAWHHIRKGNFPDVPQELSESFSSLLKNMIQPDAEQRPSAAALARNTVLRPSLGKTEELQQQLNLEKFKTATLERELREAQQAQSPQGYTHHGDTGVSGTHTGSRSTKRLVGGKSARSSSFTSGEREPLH
Chain of MST4(h) (Q9P289 whole entry): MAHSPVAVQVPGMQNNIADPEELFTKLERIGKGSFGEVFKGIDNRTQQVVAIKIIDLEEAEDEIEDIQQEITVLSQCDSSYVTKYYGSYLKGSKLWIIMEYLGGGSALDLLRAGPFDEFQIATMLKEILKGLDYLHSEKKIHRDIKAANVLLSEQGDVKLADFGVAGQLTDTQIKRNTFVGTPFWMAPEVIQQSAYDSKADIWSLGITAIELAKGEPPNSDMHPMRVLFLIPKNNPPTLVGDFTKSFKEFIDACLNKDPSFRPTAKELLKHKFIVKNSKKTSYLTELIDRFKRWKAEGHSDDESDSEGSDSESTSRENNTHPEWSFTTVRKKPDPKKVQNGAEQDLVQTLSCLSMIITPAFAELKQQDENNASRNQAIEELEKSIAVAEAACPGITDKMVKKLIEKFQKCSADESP
Chain of ZAK(h) (Q9NYL2 whole entry): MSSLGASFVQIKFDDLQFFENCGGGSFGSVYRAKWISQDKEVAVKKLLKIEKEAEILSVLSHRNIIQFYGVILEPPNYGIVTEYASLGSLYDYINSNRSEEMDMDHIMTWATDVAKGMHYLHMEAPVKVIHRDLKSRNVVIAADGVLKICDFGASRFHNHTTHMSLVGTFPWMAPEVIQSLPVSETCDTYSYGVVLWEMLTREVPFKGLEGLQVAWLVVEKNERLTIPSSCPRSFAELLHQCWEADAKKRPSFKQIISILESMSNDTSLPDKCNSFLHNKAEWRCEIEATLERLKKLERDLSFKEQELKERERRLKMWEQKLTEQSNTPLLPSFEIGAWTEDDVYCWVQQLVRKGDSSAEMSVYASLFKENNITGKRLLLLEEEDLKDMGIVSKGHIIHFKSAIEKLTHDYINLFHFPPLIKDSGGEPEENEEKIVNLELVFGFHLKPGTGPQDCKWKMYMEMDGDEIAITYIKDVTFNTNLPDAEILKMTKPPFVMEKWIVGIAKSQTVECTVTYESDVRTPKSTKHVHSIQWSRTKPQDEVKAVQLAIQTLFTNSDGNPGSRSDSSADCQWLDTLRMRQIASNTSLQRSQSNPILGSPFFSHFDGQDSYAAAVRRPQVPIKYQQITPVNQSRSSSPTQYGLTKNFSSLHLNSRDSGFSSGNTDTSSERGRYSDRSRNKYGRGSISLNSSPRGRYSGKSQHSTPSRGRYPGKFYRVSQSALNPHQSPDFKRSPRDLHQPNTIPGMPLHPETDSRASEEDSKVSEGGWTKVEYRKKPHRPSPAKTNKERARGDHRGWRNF
Chain of Lyn(h) (P07948 whole entry): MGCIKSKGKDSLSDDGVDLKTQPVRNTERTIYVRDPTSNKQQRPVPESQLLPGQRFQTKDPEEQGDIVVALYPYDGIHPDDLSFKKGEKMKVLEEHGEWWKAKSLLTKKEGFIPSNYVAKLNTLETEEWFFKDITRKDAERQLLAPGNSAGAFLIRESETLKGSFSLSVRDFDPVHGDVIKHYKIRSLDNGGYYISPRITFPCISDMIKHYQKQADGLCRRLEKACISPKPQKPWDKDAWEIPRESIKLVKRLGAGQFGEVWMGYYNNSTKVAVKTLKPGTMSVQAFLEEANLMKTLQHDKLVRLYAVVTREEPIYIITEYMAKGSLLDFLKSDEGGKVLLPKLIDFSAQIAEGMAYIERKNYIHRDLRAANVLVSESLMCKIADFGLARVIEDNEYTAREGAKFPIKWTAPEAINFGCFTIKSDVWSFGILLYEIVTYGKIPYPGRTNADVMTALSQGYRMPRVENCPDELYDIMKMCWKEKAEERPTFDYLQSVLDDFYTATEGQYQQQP
Chain of TGFBR2(h) (P37173 23-567): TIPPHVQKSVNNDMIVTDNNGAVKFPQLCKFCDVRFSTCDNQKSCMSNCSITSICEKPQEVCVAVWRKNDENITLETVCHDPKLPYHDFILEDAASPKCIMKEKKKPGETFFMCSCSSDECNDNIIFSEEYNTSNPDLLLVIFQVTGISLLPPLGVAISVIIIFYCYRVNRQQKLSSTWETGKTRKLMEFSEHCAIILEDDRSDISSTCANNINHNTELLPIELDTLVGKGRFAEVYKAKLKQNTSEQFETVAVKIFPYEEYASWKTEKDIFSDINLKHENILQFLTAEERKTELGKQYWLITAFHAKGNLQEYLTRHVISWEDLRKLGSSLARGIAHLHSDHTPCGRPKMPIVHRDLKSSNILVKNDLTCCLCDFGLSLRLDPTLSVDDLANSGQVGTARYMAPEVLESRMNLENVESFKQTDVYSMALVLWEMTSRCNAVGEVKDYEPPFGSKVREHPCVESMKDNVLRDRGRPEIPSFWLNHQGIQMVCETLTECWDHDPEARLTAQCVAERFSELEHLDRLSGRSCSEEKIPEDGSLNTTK

COc1ccc(OC)c(NS(=O)(=O)c2ccc(NC(=O)CCSc3ccc(C)cc3)cc2)c1 [Compound A41]
Activity(%) (EphA5(h)): 110% | Activity(%) (Pim-1(h)): 95% | Activity(%) (Lyn(h)): 109% | Activity(%) (Syk(h)): 91% | Activity(%) (ZIPK(h)): 103% | Activity(%) (TAO3(h)): 97% | %Effect, single replicates (1st, 2nd, 3rd) (TA1537; - S9, 1.0E-04 M): 222.5% and 214.4% and 229.2% | Cytotoxicity (% of control), Mean %Effect (TA1537; - S9, 1.0E-04 M): 222.0% | %Effect, single replicates (1st, 2nd, 3rd) (TA1537; - S9, 1.0E-05 M): 109.9% and 108.6% and 111.2% | Cytotoxicity (% of control), Mean %Effect (TA1537; - S9, 1.0E-05 M): 109.9% | %Effect, single replicates (1st, 2nd, 3rd) (TA1537; - S9, 1.2E-06 M): 109.9% and 108.6% and 101.9% | Cytotoxicity (% of control), Mean %Effect (TA1537; - S9, 1.2E-06 M): 106.8% | %Effect, single replicates (1st, 2nd, 3rd) (TA1537; - S9, 2.5E-05 M): 128.7% and 115.3% and 112.6% | Cytotoxicity (% of control), Mean %Effect (TA1537; - S9, 2.5E-05 M): 118.8% | %Effect, single replicates (1st, 2nd, 3rd) (TA1537; - S9, 2.5E-06 M): 111.2% and 104.5% and 99.2% | Cytotoxicity (% of control), Mean %Effect (TA1537; - S9, 2.5E-06 M): 105.0% | %Effect, single replicates (1st, 2nd, 3rd) (TA1537; - S9, 5.0E-05 M): 162.2% and 150.1% and 148.8% | Cytotoxicity (% of control), Mean %Effect (TA1537; - S9, 5.0E-05 M): 153.7% | %Effect, single replicates (1st, 2nd, 3rd) (TA1537; - S9, 5.0E-06 M): 116.6% and 111.2% and 100.5% | Cytotoxicity (% of control), Mean %Effect (TA1537; - S9, 5.0E-06 M): 109.4% | %Effect, single replicates (1st, 2nd, 3rd) (TA1537; - S9, 6.0E-07 M): 107.2% (2×) and 115.3% | Cytotoxicity (% of control), Mean %Effect (TA1537; - S9, 6.0E-07 M): 109.9% | Activity(%) (TGFBR2(h)): 99% | Activity(%) (Wee1B(h)): 89% | Activity(%) [1]: 97% | Activity(%) (PI3K (p110d/p85a)(m)): 100% | Activity(%) (MAPKAP-K2(h)): 111% | Activity(%) (ZAK(h)): 109% | Activity(%) (ALK2(h)): 100% | % inh. (Histamine H1): 41% | Activity(%) (AMPKα2(h)): 111% | Activity(%) (PDGFRβ(h)): 82% | Activity(%) (PRKG2(h)): 123% | Activity(%) (PI3KC2a(h)): 95% | Activity(%) (ALK4(h)): 101% | Activity(%) (EGFR(L858R)(h)): 104% | Activity(%) (Met(D1246H)(h)): 115% | Activity(%) (PKCα(h)): 105% | Activity(%) (SBK1(h)): 101% | % inh. [2]: -3% | % inh. (Adrenergic α1A): 34% | Activity(%) (HRI(h)): 98% | % inh. [3]: -12% | Activity(%) (PAK4(h)): 106% | Activity(%) (PhKγ1(h)): 102% | Activity(%) (TNIK(h)): 94% | % inh. (Muscarinic M1): 11% | % inh. (Bradykinin B2): 1% | Activity(%) (MST4(h)): 101% | Activity(%) (Abl (Q252H) (h)): 105% | Activity(%) (PKCζ(h)): 97%
